Test results published in patent publication US12344626B2, “Pharmaceutical compounds and therapeutic methods” (RUTGERS, THE STATE UNIVERSITY OF NEW JERSEY, priority 2019, dated 2025).
pEC50: −log10 of the molar value. Entries after “also recorded” stand apart in the source; their conditions may differ.

What was measured:
[1] = test system: human tumor cell lines; experiment: Cell growth inhibition assay (Calcein AM); format: cell-based; details: for pEC50: Calcein AM, incubation for 3 days; for Fold (Zn-1/compound) / Fold (compound/Zn-1): ratio of EC50s
Description: (§1) Cell growth inhibition assay using human tumor cell lines with different p53 status (wildtype, null, p53-R175H or other zinc binding deficient mutants) are employed to determine if a test compound functions as a zinc metallochaperone to restore wildtype p53 functions. Five thousand cells per well are cultured in 96-well plate to reach the 50% confluence on the second day when treated with serial dilutions of the compounds. Growth is measured by Calcein AM assay after incubation for 72 hours.
The cell growth inhibition assay was performed by Calcein AM assay (Trevigen). Five thousand cells per well were cultured in 96-well plate to reach the 50% confluence on the second day when treated with serial dilutions of the compounds. Growth was measured by Calcein AM assay (Trevigen) and Victor Plate reader instrument (PerkinElmer) after incubation for 3 days.

[2] = Solubility of zinc complexes; format: physicochemical
[3] = test system: p53R175H cells; experiment: Potency against p53R175H cells in vitro, compared with the monomer from Zn-1; format: cell-based
Description: as §1

[4] = molecular target: T1, mutant p53 (Homo sapiens, UniProt P04637, R175H); experiment: Immunofluorescent staining with p53 conformation specific antibodies (PAB240, PAB1620); format: cell-based; details: PAB 1620 (wild type specific)
T1 construct: endogenous in cells; host or cells: p53-R175H cells (e.g. TOV112D)
Description: An immunofluorescent staining using p53 conformation specific antibodies is used to determine if a test compound could induce the mutant p53 protein refolding to a wildtype conformation. The p53-R175H cells (e.g. TOV112D) cultured in DMEM+10% FBS are treated with a test compound for 6 hours, then fixed and stained with the antibodies PAB1620 (recognizing WT conformation) and PAB240 (recognizing misfolded/unfolded conformation) respectively.

[5] = test system: p53 target genes p21, PUMA and GDF15; experiment: Quantitative PCR of p53 target genes (restoration of wild type transcriptional function); format: cell-based; details: for p21, PUMA and GDF15 levels: quantitative PCR
[6] = molecular target: T1, mutant p53; experiment: Cell growth inhibition after mutant p53 knock-down using siRNA; format: cell-based; details: mutant p53 knocked down using an siRNA
[7] = molecular target: T2, COX1(h) (Homo sapiens, UniProt P23219); experiment: CEREP-44 Safety Screen: COX1; format: biochemical; set-up: dose or concentration left out as unconfirmed
T2 construct: Eurofins (Cerep) SafetyScreen44 panel, contract screen P270

[8] = molecular target: T3, COX2(h) (Homo sapiens, UniProt P35354); experiment: CEREP-44 Safety Screen: COX2; format: biochemical; set-up: dose or concentration left out as unconfirmed
T3 construct: Eurofins (Cerep) SafetyScreen44 panel, contract screen P270
T3 sequence (P35354 18-604): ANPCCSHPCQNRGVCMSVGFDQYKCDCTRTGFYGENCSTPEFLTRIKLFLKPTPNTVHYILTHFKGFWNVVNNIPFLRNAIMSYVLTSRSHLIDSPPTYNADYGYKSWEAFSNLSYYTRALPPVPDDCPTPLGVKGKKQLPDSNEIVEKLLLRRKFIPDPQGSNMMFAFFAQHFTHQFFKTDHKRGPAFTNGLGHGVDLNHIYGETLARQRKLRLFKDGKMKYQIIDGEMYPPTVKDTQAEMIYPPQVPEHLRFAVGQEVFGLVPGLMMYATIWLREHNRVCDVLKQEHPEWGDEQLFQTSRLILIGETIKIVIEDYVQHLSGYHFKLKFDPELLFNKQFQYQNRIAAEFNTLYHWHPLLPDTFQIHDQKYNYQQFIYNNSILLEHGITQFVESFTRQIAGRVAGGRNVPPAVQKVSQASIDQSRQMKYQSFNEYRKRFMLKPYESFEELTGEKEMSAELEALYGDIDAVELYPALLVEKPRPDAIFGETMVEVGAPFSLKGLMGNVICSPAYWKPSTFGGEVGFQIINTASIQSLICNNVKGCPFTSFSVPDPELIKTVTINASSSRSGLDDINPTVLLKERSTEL

[9] = molecular target: T4, 5-HT2B (Homo sapiens, UniProt P41595); experiment: CEREP-44 Safety Screen: 5-HT2B; format: binding; set-up: dose or concentration left out as unconfirmed
T4 construct: Eurofins (Cerep) SafetyScreen44 panel, contract screen P270
T4 sequence (P41595 whole entry): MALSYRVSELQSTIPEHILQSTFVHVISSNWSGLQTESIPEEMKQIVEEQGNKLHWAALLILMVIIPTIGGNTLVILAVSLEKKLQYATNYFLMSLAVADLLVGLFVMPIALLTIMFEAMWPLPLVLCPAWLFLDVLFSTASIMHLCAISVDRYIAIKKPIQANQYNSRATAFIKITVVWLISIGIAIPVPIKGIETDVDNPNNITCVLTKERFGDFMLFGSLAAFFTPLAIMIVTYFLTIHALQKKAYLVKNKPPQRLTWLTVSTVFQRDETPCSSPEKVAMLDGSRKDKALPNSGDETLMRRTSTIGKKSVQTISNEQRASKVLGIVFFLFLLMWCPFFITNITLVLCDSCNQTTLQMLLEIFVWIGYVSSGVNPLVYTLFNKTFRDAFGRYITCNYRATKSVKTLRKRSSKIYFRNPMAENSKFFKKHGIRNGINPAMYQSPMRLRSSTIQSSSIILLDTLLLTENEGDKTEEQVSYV

T2 sequence (P23219 24-599): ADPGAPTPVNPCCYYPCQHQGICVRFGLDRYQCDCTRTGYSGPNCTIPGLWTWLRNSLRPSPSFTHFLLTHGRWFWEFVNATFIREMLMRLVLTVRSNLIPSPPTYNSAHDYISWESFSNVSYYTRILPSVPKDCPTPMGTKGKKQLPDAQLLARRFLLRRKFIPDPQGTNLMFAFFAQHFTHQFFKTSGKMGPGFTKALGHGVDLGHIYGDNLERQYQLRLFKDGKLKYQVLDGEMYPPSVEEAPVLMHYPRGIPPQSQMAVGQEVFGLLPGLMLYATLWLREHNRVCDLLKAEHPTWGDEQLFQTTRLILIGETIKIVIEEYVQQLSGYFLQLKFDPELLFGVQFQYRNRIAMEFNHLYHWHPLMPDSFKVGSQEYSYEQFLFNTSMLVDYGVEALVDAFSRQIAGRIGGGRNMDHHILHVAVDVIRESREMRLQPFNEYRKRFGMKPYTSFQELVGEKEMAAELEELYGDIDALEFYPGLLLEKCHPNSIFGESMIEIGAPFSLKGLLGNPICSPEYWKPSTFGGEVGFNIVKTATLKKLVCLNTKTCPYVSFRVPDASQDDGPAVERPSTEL

Row | Compound | pEC50 [1] | Fold (Zn-1/compound) [1] | Fold (compound/Zn-1) [1] | Solubility DMSO 4 mg/ml [2] | Solubility DMSO 10 mg/ml [2] | Solubility EtOH 1 mg/ml [2] | Solubility EtOH 2 mg/ml [2] | Solubility H2O:DMSO 1:1 0.5 mg/mL [2] | More potent than the monomer from Zn-1 [3] | other results
1 | C/C(=N\NC(=S)N(C)C)c1ccc(O[C@H]2CCOC2)cn1.C/C(=N\NC(=S)N(C)C)c1ccc(O[C@H]2CCOC2)cn1.[Zn] [Zn-15, Zn[(S,E)-N,N-dimethyl-2-(1-(5-((tetrahydrofuran-3-yl)oxy)pyridin-2-yl)ethylidene)hydrazine-1-carbothioamide]2] | 8.15 | 2.6 | 0.4 | – | – | – | – | – | – | –
2 | Zn[(E)-2-(1-(4-(2-methoxyethoxy)pyridin-2-yl)ethylidene)-N,N-dimethylhydrazine-1-carbothioamide]2 [ZN-8] | 9.43 | 7.3 | 0.1 | Yes | Yes | YES | Partial | No | 14 fold | Wild type conformation change of mutant p53 [4]: induces a wild type conformation change; p21, PUMA and GDF15 levels [5]: markedly induced; Increases of p21, PUMA and GDF15 in p53R175H knock-out cells ([5]; same cell line with mutant p53R175H knocked out using CRISPR): not observed; Cell growth inhibition after mutant p53 knock-down [6]: attenuated by more than a log fold; COX1(h) % Inh. [7]: 54.8 % Inh.; COX2(h) % Inh. [8]: 50.7 % Inh.; 5-HT2B % Inh. [9]: 58.7 % Inh.
3 | Zn[(E)-N,N-dimethyl-2-(1-(4-(2-morpholinoethoxy)pyridin-2-yl)ethylidene)hydrazine-1-carbothioamide]2 [ZN-9] | 7.74 | 0.1 | 6.7 | – | Yes | – | Yes | – | – | –
4 | C/C(=N\NC(=S)N1CCC1)c1ccccn1 [ZN-1, reference compound] | – | – | – | Yes | No | No | No | No | 3 fold | pEC50 ([1]; Homo sapiens, 72 h): 8.57; p21, PUMA and GDF15 levels [5]: markedly induced
5 | Zn[(E)-N,N-dimethyl-2-(1-(4-(2-morpholinoethoxy)pyridin-2-yl)ethylidene)hydrazine-1-carbothioamide]2 bis mesylate salt [ZN-9 Mesylate salt] | – | – | – | – | – | – | – | – | – | Solubility 0.9% Saline ([2]; 0.9% Saline): 5000 to 10000 µg/mL
6 | COc1ccnc(/C(C)=N/NC(=S)N(C)C)c1.COc1ccnc(/C(C)=N/NC(=S)N(C)C)c1.[Zn] [Zn-11, Zn[(E)-2-(1-(4-methoxypyridin-2-yl)ethylidene)-N,N-dimethylhydrazine-1-carbothioamide]2] | 9.66 | 12.2 | 0.1 | Yes | Yes | Partial | – | No at 0.5 | 209 fold | Qualitative relative solubility in 1:1 DMSO:water ([2]; H2O:DMSO 1:1 at 0.5 mg/mL, compared among Zn-8, Zn-11 and Zn-14): qualitatively more soluble; also recorded: *Qualitatively slightly more soluble compared with Zn-8 and Zn-14
7 | C/C(=N\NC(=S)N1CCC1)c1ccccn1 [ZMC-1, reference compound] | – | – | – | – | – | – | – | – | – | Solubility DMSO (3 mg/ml) ([2]; DMSO 4 mg/ml column, cell annotated (3 mg/ml)): Yes
